# Laboratory results from US20050148495A1, “Methods and materials including for treating acne” (priority 2003, published 2005).
# Read-outs that look alike come from different tables or passages of the source. Non-standard residues stand in square brackets, D forms with d. Residues, ends and D or L forms follow the SMILES beside them. d1Nal = N[C@H](Cc1cccc2ccccc12)C(=O)O
# Legend:
# Streptococcus sobrinus = Streptococcus sobrinus 27607
# [1] = test system: CD [Crl:CD (SD) IGS BR] rats; test: Rat acute oral toxicity test; type: in vivo
# Method: XMP.629 was evaluated for acute toxicity following a single dose by oral gavage. The study consisted of three treatment groups of five male and five female CD [CrI:CD (SD) IGS BR] rats which received XMP.629 as a gel at concentrations of 0.1, 0.5, and 1.0% of XMP.629 respectively at a volume of 10 mL/kg. An additional group of five rats per sex served as the control and received control gel at the same volume. All rats were observed twice daily for morbidity, mortality, injury, and availability of food and water. Body weights were measured pretest and at different intervals during the study for all rats; observations for clinical signs were conducted pretest and at approximately 2 and 4 hours following the dose; and daily clinical observations were conducted daily until Day 14. At study termination, gross necropsies were conducted and macroscopic observations were recorded for all animals.
# P. acnes [2] = settings: for MBC Range: in µg/mL
# Method: An in vitro assessment of antibiotic activity in XMP.629 and various known antibiotics against a representative panel of bacterial strains associated with acne was conducted. A broth dilution methodology was employed using guidelines established by National Committee for Clinical Laboratory Standards (NCCLS) for anaerobic organisms to establish an antibacterial profile for XMP.629. Assays to determine the minimal bactericidal concentrations (MBC) and minimal inhibitory concentration (MIC) were conducted for XMP.629 and other known antibiotics.
# (§1) Inoculum from a representative panel of bacterial strains associated with acne, such as P. acnes, P. avidum, P. granulosum, and Staphylococcus epidermis was prepared by suspending approximately 5-10 isolated bacterial colonies in pre-reduced MicroScan® Inoculum Water (Dade Behring, Deerfield, Ill.), and growing the bacterial suspension to log phase (approximately 48 hrs). An inoculum of between 1-5×10^6/mL was achieved by adding 100 μL of the suspension to 25 mL Brain Heart Infusion Broth (BHI) (Anaerobe Systems, Morgan Hill, Calif.).
# A stock solution of XMP.629 dissolved in water at a concentration of 4.0 mg/mL was prepared. Dilute solutions of XMP.629 at concentrations ranging from about 1.25 to about 160 μg/mL were made in either water or formulation buffer (130 mM sodium chloride, 0.2% P103 (poloxamer 333), and 0.10% EDTA, pH 7.3).
# Control tubes containing only water or formulation buffer were prepared for each isolate. Initial growth controls were determined by removing 10 μL from the water control tube and diluting it by 100 fold. From this dilution, 10 μL was used for inoculation and for spreading over the surface onto Laked Blood Agar (LBA) (Anaerobe Systems, Morgan Hill, Calif.) plates. The tubes and plates were incubated in an anaerobic atmosphere at 37° C. for 48 h.
# [3] = 0.1, 0.5, or 1% gel on 15% BSA; limit of quantification 1 ng/mL
# Method: XMP.629 acetate gel (0.1, 0.5, or 1% XMP.629 acetate per gram gel) was applied to the skin of mini-pigs. The dose of gel in each group was calculated as that amount which would cover 15% of the body surface area (BSA) at a rate of 2 mg of gel per cm2 of BSA. The application area was washed 24 hours following XMP.629 acetate gel application. Blood samples were collected at selected times up to 168 hours after dosing, plasma was extracted, and assayed for XMP.629 using an LC/MS/MS assay (limit of quantification=1 ng/mL).
# P. acnes [4] = settings: each strain: UPC686, ATCC 6919 intermediate-erythromycin, UP2022
# protease = test: Resistance to protease degradation
# Method: In additional studies, a variety of formulations of XMP.629 were tested for stability under various temperatures, such as 25° C., 40° C., and 50° C., and at various time points, such as 0.5, 1, and 2 months.
# [5] = test system: P. acnes strain (ATCC 6919); settings: ATCC 6919
# [6] = test system: Propionibacterium isolates; settings: 15 isolates
# Method: as §1
# Control tubes containing only water or formulation buffer were prepared for each isolate. Initial growth controls were determined by removing 10 μL from the water control tube and diluting it by 100 fold. From this dilution, 10 μL was used for inoculation and for spreading over the surface onto Laked Blood Agar (LBA) (Anaerobe Systems, Morgan Hill, Calif.) plates. The tubes and plates were incubated in an anaerobic atmosphere at 37° C. for 48 h. […] MBC50 and 90 values represent where 50 and 90%, respectively, of the tested strain's MBC values are equal to or less than the indicated concentration.
# [7] = ATCC 6919, Formulation Buffer Solvent, Study 1
# [8] = ATCC 6919, Formulation Buffer Solvent, Study 2
# [9] = ATCC 6919, Water Solvent, Study 1
# [10] = ATCC 6919, Water Solvent, Study 2
# [11] = ATCC 6919, XMP.629 composition of Example 5 (Table 12)
# [12] = ATCC 11827, Formulation Buffer Solvent, Study 1
# [13] = ATCC 11827, Formulation Buffer Solvent, Study 2
# [14] = ATCC 11827, Water Solvent, Study 1
# [15] = ATCC 11827, Water Solvent, Study 2
# [16] = ATCC 11828, composition of Example 5
# [17] = Clindamycin Resistant C678, composition of Example 5
# [18] = Clindamycin Resistant C767, composition of Example 5
# [19] = Clindamycin Resistant C768, composition of Example 5
# [20] = Clindamycin Resistant C769, composition of Example 5
# [21] = Clindamycin Resistant C770, composition of Example 5
# [22] = P. acnes strains of Table 7, composition of Example 5
# [23] = P. acnes, Clindamycin resistant, 16 strains
# [24] = P. acnes, Clindamycin sensitive, 20 strains
# [25] = Propionibacterium acnes, 36 strains/clinical isolates, formulation buffer
# [26] = RMA 9833, Formulation Buffer Solvent, Study 1
# [27] = RMA 9833, Formulation Buffer Solvent, Study 2
# [28] = RMA 9833, Water Solvent, Study 1
# [29] = RMA 9833, Water Solvent, Study 2
# [30] = RMA 9833, composition of Example 5
# [31] = RMA 12689, Formulation Buffer Solvent, Study 1
# [32] = RMA 12689, Formulation Buffer Solvent, Study 2
# [33] = RMA 12689, Water Solvent, Study 1
# [34] = RMA 12689, Water Solvent, Study 2
# [35] = RMA 12689, composition of Example 5
# [36] = RMA 12732, Formulation Buffer Solvent, Study 1
# [37] = RMA 12732, Formulation Buffer Solvent, Study 2
# [38] = RMA 12732, Water Solvent, Study 1
# [39] = RMA 12732, Water Solvent, Study 2
# [40] = RMA 12908, Formulation Buffer Solvent, Study 1
# [41] = RMA 12908, Formulation Buffer Solvent, Study 2
# [42] = RMA 12908, Water Solvent, Study 1
# [43] = RMA 12908, Water Solvent, Study 2
# [44] = RMA 12908, composition of Example 5
# [45] = RMA 13399, Formulation Buffer Solvent, Study 1
# [46] = RMA 13399, Formulation Buffer Solvent, Study 2
# [47] = RMA 13399, Water Solvent, Study 1
# [48] = RMA 13399, Water Solvent, Study 2
# [49] = UD 738, composition of Example 5
# [50] = XMP.629 composition of Example 5 (Table 12), P. acnes strains of Table 7
# [51] = Formulation Buffer Solvent, Study 1
# [52] = Formulation Buffer Solvent, Study 2
compound,measurement,setting,value
"CC(C)C[C@@H](NC(=O)[C@H](N)CCCCN)C(=O)N[C@H](Cc1ccccc1)C(=O)N[C@H](CCCNC(=N)N)C(=O)N[C@H](Cc1cccc2ccccc12)C(=O)N[C@H](CCC(N)=O)C(=O)N[C@H](C)C(=O)N[C@H](CCCCN)C(=O)N[C@H](Cc1cccc2ccccc12)C(N)=O [XMP.629, NH2-lys-leu-phe-arg-(3-(1-naphthyl)-ala)-gln-ala-lys-(3-(1-naphthyl)-ala)-CONH2] (H-[dK][dL][dF][dR][d1Nal][dQ][dA][dK][d1Nal]-NH2)",Minimum Inhibitory Concentrations,Streptococcus sobrinus,2.00 µg/mL
same,clinical observation,"[1]; 1.0% XMP.629, four hours after administration, four males and one female, resolved by Day 2",Decreased activity
same,clinical signs,[1]; concentrations of 0.1 or 0.5% XMP.629,No clinical signs of systemic toxicity
same,minimum lethal dose,"[1]; single oral gavage of gel, 10 mL/kg (10 mg/mL)",> 1 % XMP.629
same,MBC,P. acnes [2]; [7],1 µg/mL
same,MIC,P. acnes [2]; [7],0.5 µg/mL
same,MBC,P. acnes [2]; [8],0.50 µg/mL
same,MIC,P. acnes [2]; [8],1 µg/mL
same,MBC,P. acnes [2]; [9],4 µg/mL
same,MIC,P. acnes [2]; [9],2 µg/mL
same,MBC,P. acnes [2]; [10],2 µg/mL
same,MIC,P. acnes [2]; [10],2 µg/mL
same,MBC,P. acnes [2]; [11],2 µg/mL
same,MIC,P. acnes [2]; [11],1 µg/mL
same,MBC,P. acnes [2]; [12],1 µg/mL
same,MIC,P. acnes [2]; [12],0.5 µg/mL
same,MBC,P. acnes [2]; [13],1 µg/mL
same,MIC,P. acnes [2]; [13],1 µg/mL
same,MBC,P. acnes [2]; [14],2 µg/mL
same,MIC,P. acnes [2]; [14],2 µg/mL
same,MBC,P. acnes [2]; [15],2 µg/mL
same,MIC,P. acnes [2]; [15],2 µg/mL
same,MBC,P. acnes [2]; [16],2 µg/mL
same,MIC,P. acnes [2]; [16],1 µg/mL
same,MBC,P. acnes [2]; [17],4 µg/mL
same,MIC,P. acnes [2]; [17],1 µg/mL
same,MBC,P. acnes [2]; [18],2 µg/mL
same,MIC,P. acnes [2]; [18],1 µg/mL
same,MBC,P. acnes [2]; [19],4 µg/mL
same,MIC,P. acnes [2]; [19],2 µg/mL
same,MBC,P. acnes [2]; [20],2 µg/mL
same,MIC,P. acnes [2]; [20],1 µg/mL
same,MBC,P. acnes [2]; [21],2 µg/mL
same,MIC,P. acnes [2]; [21],0.5 µg/mL
same,"MIC90, XMP.629 data reported as MBC values",P. acnes [2]; P. acnes,1 µg/mL
same,MBC Geo. Mean,P. acnes [2]; [22],2.3 µg/mL
same,MIC Geo. Mean,P. acnes [2]; [22],0.95 µg/mL
same,MBC50,P. acnes [2]; [23],1 µg/mL
same,MBC90,P. acnes [2]; [23],2 µg/mL
same,MBC Range,P. acnes [2]; [23],1-2
same,MBC50,P. acnes [2]; [24],1 µg/mL
same,MBC90,P. acnes [2]; [24],2 µg/mL
same,MBC Range,P. acnes [2]; [24],0.25-2
same,MBC50,P. acnes [2]; [25],1 µg/mL
same,MBC90,P. acnes [2]; [25],2 µg/mL
same,MBC Range,"P. acnes [2]; Propionibacterium acnes, 36 strains/clinical isolates",0.25-2
same,MBC,P. acnes [2]; [26],1 µg/mL
same,MIC,P. acnes [2]; [26],0.5 µg/mL
same,MBC,P. acnes [2]; [27],2 µg/mL
same,MIC,P. acnes [2]; [27],1 µg/mL
same,MBC,P. acnes [2]; [28],2 µg/mL
same,MIC,P. acnes [2]; [28],1 µg/mL
same,MBC,P. acnes [2]; [29],2 µg/mL
same,MIC,P. acnes [2]; [29],2 µg/mL
same,MBC,P. acnes [2]; [30],1 µg/mL
same,MIC,P. acnes [2]; [30],0.5 µg/mL
same,MBC,P. acnes [2]; [31],2 µg/mL
same,MIC,P. acnes [2]; [31],1 µg/mL
same,MBC,P. acnes [2]; [32],2 µg/mL
same,MIC,P. acnes [2]; [32],1 µg/mL
same,MBC,P. acnes [2]; [33],4 µg/mL
same,MIC,P. acnes [2]; [33],2 µg/mL
same,MBC,P. acnes [2]; [34],2 µg/mL
same,MIC,P. acnes [2]; [34],2 µg/mL
same,MBC,P. acnes [2]; [35],2 µg/mL
same,MIC,P. acnes [2]; [35],1 µg/mL
same,MBC,P. acnes [2]; [36],2 µg/mL
same,MIC,P. acnes [2]; [36],2 µg/mL
same,MBC,P. acnes [2]; [37],2 µg/mL
same,MIC,P. acnes [2]; [37],2 µg/mL
same,MBC,P. acnes [2]; [38],4 µg/mL
same,MIC,P. acnes [2]; [38],4 µg/mL
same,MBC,P. acnes [2]; [39],2 µg/mL
same,MIC,P. acnes [2]; [39],4 µg/mL
same,MBC,P. acnes [2]; [40],2 µg/mL
same,MIC,P. acnes [2]; [40],2 µg/mL
same,MBC,P. acnes [2]; [41],2 µg/mL
same,MIC,P. acnes [2]; [41],2 µg/mL
same,MBC,P. acnes [2]; [42],4 µg/mL
same,MIC,P. acnes [2]; [42],4 µg/mL
same,MBC,P. acnes [2]; [43],4 µg/mL
same,MIC,P. acnes [2]; [43],2 µg/mL
same,MBC,P. acnes [2]; [44],2 µg/mL
same,MIC,P. acnes [2]; [44],1 µg/mL
same,MBC,P. acnes [2]; [45],1 µg/mL
same,MIC,P. acnes [2]; [45],0.5 µg/mL
same,MBC,P. acnes [2]; [46],2 µg/mL
same,MIC,P. acnes [2]; [46],2 µg/mL
same,MBC,P. acnes [2]; [47],4 µg/mL
same,MIC,P. acnes [2]; [47],2 µg/mL
same,MBC,P. acnes [2]; [48],4 µg/mL
same,MIC,P. acnes [2]; [48],4 µg/mL
same,MBC,P. acnes [2]; [49],2 µg/mL
same,MIC,P. acnes [2]; [49],0.5 µg/mL
same,MBC50,P. acnes [2]; [50],2 µg/mL
same,MBC90,P. acnes [2]; [50],2 µg/mL
same,plasma concentrations after topical administration,[3],no measurable plasma concentrations
same,MBC,P. acnes [4],1 µg/mL
same,protease degradation,protease,substantially resistant to protease degradation
same,MIC/MBC,[5],>4 µg/mL
same,MBC GeoMean Values,[6]; [51],1.2 µg/mL
same,MIC GeoMean Values,[6]; [51],0.7 µg/mL
same,MBC GeoMean Values,[6]; [52],1.10 µg/mL
same,MIC GeoMean Values,[6]; [52],0.7 µg/mL
same,MBC GeoMean Values,"[6]; Water Solvent, Study 1",2.41 µg/mL
same,MIC GeoMean Values,"[6]; Water Solvent, Study 1",1.7 µg/mL
same,MBC GeoMean Values,"[6]; Water Solvent, Study 2",1.9 µg/mL
same,MIC GeoMean Values,"[6]; Water Solvent, Study 2",1.7 µg/mL
